Test results from ChEMBL document CHEMBL5614440, “Development of Novel Indole-Based Covalent Inhibitors of TEAD as Potential Antiliver Cancer Agents” (J Med Chem, 2024).

Tests used:
Huh-7 [1] = test: Antiproliferative activity against human Huh-7 cells incubated for 3 days by CCK8 assay; type: functional, cell-based; conditions: Huh-7, 72 h
HEK293T = test: Inhibition of TEAD (unknown origin) expressed in HEK293T cells transfected with 8xGTIIC-luciferase at 10 uM by dual luciferase reporter assay relative to control; type: cell-based; conditions: Homo sapiens
Huh-7 [2] = test: Antitumor activity against human Huh-7 cells xenografted in NSG mouse assessed as tumor growth inhibition at 100 mg/kg, po administered every 3 days for 24 days and measured every 3 days; type: functional; conditions: Huh-7, 576 h, time 24 day, read-out: TGI

Row | Compound | IC50 (Huh-7 [1]) [µM] | inhibition (HEK293T) [%] | inhibition in vivo at 100 mg/kg (Huh-7 [2]) [%]
1 | CNC(=O)c1cc(Oc2ccc(NC(=O)Nc3ccc(Cl)c(C(F)(F)F)c3)cc2)ccn1 [SORAFENIB] | – | – | 76
2 | O=C(CCl)c1c[nH]c2ccc(OCc3ccccc3)cc12 | 10.5 | 20.5 | –
3 | C=CC(=O)NCc1c[nH]c2cc(Cl)c(OCc3cccc4ccccc34)cc12 | 14.4 | 10.6 | –
4 | O=C(CCl)c1c[nH]c2ccc(OCc3ccc4ccccc4c3)cc12 | > 20 | 5.3 | –
5 | O=C(CCl)NCc1c[nH]c2cc(Cl)c(OCc3ccc4ccccc4c3)cc12 | 5.7 | 67.4 | –
6 | C=CC(=O)NCc1c[nH]c2cc(Cl)c(OCc3ccccc3)cc12 | > 50 | – | –
7 | O=C(CCl)NCc1c[nH]c2cc(Cl)c(OCc3cccc(C(F)(F)F)c3)cc12 | 8.3 | 47.9 | –

Second part, led by results:

Row | IC50 (Huh-7 [1]) [µM] | Compound | inhibition (HEK293T) [%] | inhibition in vivo at 100 mg/kg (Huh-7 [2]) [%]
8 | 1.8 | O=C(CCl)c1c[nH]c2cc(Cl)c(OCc3ccc(C(F)(F)F)c(F)c3)cc12 | – | –
9 | 0.8 | O=C(CCl)NCc1c[nH]c2cc(Cl)c(OCc3cccc4ccccc34)cc12 | 81.5 | –
10 | 2.5 | COc1cc2[nH]cc(C(=O)CCl)c2cc1OCc1cccc2ccccc12 | 64.5 | –
11 | 3.8 | COc1cc2[nH]cc(C(=O)CCl)c2cc1OCc1ccccc1 | 53.7 | –
12 | 5.3 | N#C/C(=C\c1c[nH]c2cc(Cl)c(OCC3CCC(F)(F)CC3)cc12)C(N)=O | 60.1 | –
13 | 1.6 | O=C(CCl)c1c[nH]c2cc(Cl)c(OCc3cccc4ccccc34)cc12 | 69.4 | –
